Measurements: patent US10959966B2, “Compositions and methods for modulating HEXM1 expression” (CASE WESTERN RESERVE UNIVERSITY, priority 2014, dated 2021)

Test system: HEXIM1 expression in breast cancer MCF7 cells
Experiment: HEXIM1 protein expression in MCF7 cells
Format: cell-based
Conditions: 18 h
Procedure: FIGS. 5(A-C) illustrate (A) the structure of HMBA analog, 4a1, (B) a graph showing HEXIM1 protein expression of breast cancer MCF7 cells treated with vehicle, HMBA, or 4a1 for 18 h, and (C) Western blot analyses of HEXIM1 targets relative to the loading control (GAPDH) of the treated cells.
MCF7, MDA-MB-231, and LNCaP cells were obtained from the American Tissue Culture Collection, and were maintained as previously described. Construction of expression vectors for control miRNA or HEXIM1 miRNAs were described previously. MCF7 or LNCaP cells were transfected with expression vectors containing either the HEXIM1 miRNA insert or a control miRNA insert as previously described. Following blasticidin selection, cells expressing the highest level of GFP were flow-sorted and expanded. MDA-MB-231 cells were transfected with control or expression vector for Flag-tagged HEXIM1 as previously described. The tamoxifen resistant cells line (TOTR) was generated by serial passage of parental MCF7 cells in growth media supplemented with 1 uM trans-hydroxytamoxifen.
Cell lysates were analyzed by western blot as previously described. Anti-HEXIM1 was generated in the Montano laboratory. Primary antibodies against p21 (C-19; cat# sc-397), cyclin D1 (HD11; cat# sc-246) and myc (9E10; cat# sc-40) were obtained from Santa Cruz Biotechnology. Anti-GAPDH was obtained from Millipore. […]

Question: Which “Potency of HEXIM1 induction compared to HMBA” value does the source give for `COc1ccc(CC(=O)NCCCCCCNC(C)=O)cc1` [Compound 4a1] here?
Answer: increased potency
